Results reported in US20250244419A1, “INFUSION DEVICE FOR THE PREPARATION AND DELIVERY OF MRI PROBES” (The United States of America, as represented by the …, priority 2022, published 2025).

Assay: Relaxation dynamics of hyperpolarized [1-13C]pyruvate (build-up time Tb, T1)
Assay type: physicochemical
Conditions: for corresponding T1 value: same conditions as build-up
Excerpt: In addition, the relaxation dynamics of the [1-^13C]pyruvate were also studied.
In addition, relaxation dynamics at earth field and 1.8 T are about the same as a non-fluorinated SABRE catalyst T1=28.9±1.6 s and 66.5±7 s, respectively.
In addition, relaxation dynamics at earth field and 1.8 T are about the same as a non-fluorinated SABRE catalyst T1=9.0±1.9 s and 16.0±1.4 s, respectively.

[1] = NFBME / deuterated methanol mixture, catalyst of Example 4
[2] = methanol, catalyst of Example 4, DMSO co-ligand

For `C[13C](=O)C(=O)O` [[1-^13C]pyruvate, Sodium [1-^13C]-pyruvate], which “T1 at 1.8 T” value [1] is on record?
The value was 16.0 ± 1.4 s.

And the “T1 at earth field” value [1]?
Its value is 9.0 ± 1.9 s.

And the “corresponding T1 value” [1]?
Its value is 11.3 ± 1.3 s.

And the “T1 at 1.8 T” value [2]?
Its value is 66.5 ± 7 s.

What about the “T1 at earth field” value [2] of the same molecule?
The value was 28.9 ± 1.6 s.

And the “corresponding T1 value” [2]?
Its value is 16.1 ± 0.9 s.
